From paper PMC10298530, “Synthesis and Anticancer Activity of A-Ring-Modified Derivatives of Dihydrobetulin” (International Journal of Molecular Sciences, 2023)
Several values for one entry are separate records, joined by “and”; a condition that tells them apart may be missing. Equal values may be shown once. Read-outs that look alike come from different tables or passages of the source.

What was measured:
[1] = system: HBL-100 cells; assay: Annexin V-FITC/PI assay, HBL-100; assay type: cell-based, human; details: 16 h
Procedure: (§1) Briefly, after exposing the cells to the tested and control compounds for 16 h, the cells were detached with accutase (HiMedia Laboratories, Maharashtra, India) and washed with cold PBS. Then, the cells were re-suspended in 100 μL of 1 × Binding Buffer at concentration 1 × 10^6 cells/mL and incubated with 5 μL Annexin V-FITC and 5 μL propidium iodide (PI) for 15 min at room temperature in darkness. After incubation, 400 μL of 1 × Binding Buffer was added to each tube. The samples were analyzed by flow cytometry (CytoFlex S, Beckman Coulter, Brea, CA, USA) within 1 h of staining, and the findings were analyzed using a trial version of the Kaluza software (Beckman Coulter, Brea, CA, USA).

[2] = system: HBL-100/Dox cells; assay: Western blotting of cytochrome c, cleaved caspase-9 and -8, HBL-100/Dox; assay type: cell-based, human; details: 16 h, IC50
Procedure: The supernatant (cytosol fraction) and mitochondrial pellets were then collected, and protein concentration was determined by UV […] using 1–100 μg/mL BSA as standard curve concentrations (UV-2600i spectrophotometer; Shimadzu, Tokyo, Japan).
Then, the same protein amounts (20.0 µg in each lane) were loaded and separated by 4–20% Mini-PROTEAN TGX Stain-Free Protein Gels (Bio-Rad Laboratories, Hercules, CA, USA), followed by transferring onto polyvinylidene difluoride (PVDF) membranes. The membranes were blocked with 1% (w/v) casein in Tris-buffered saline containing 0.1% Tween-20 (TBS-T), and were incubated overnight with primary antibodies (1:1000) of Cytochrome c (D18C7) Rabbit mAb, Cleaved Caspase-9 (Asp330) (E5Z7N) Rabbit mAb, Cleaved Caspase-8 (Asp374) (18C8) Rabbit mAb, and β-Actin (D6A8) Rabbit mAb (Cell Signaling Technology, Danvers, MA, USA) for cytosol and mitohondrial fractions at 4 °C. The next day, the PVDF membranes were washed thrice in TBS-T and incubated with HRP-conjugated secondary antibodies (1:1000) (Cell Signaling Technology, Danvers, MA, USA) for 1 h at RT. Immunoreactive proteins were detected by Clarity Western ECL Substrate (Bio-Rad Laboratories, Hercules, CA, USA) and then analyzed on the ChemiDoc MP Imaging system (Bio-Rad Laboratories, Hercules, CA, USA). The proteins were quantified by densitometry using Image Lab software (version 6.0; Bio-Rad Laboratories, Hercules, CA, USA). To normalize protein expression data, a blot with β-Actin was used.

[3] = system: HBL-100/Dox cells; assay: Annexin V-FITC/PI assay, HBL-100/Dox; assay type: cell-based, human; details: 16 h
Procedure: as §1

[4] = system: HBL-100 cells; assay: Hoechst 33342 / TMRE fluorescent microscopy, HBL-100; assay type: cell-based, human
Procedure: The DNA marker, termed Hoechst 33342 Ready Flow Reagent, was used as a stock solution (Invitrogen, ThermoFisher Scientific, USA). The mitochondrial marker, LumiTracker Mito TMRE (tetramethylrhodamine, ethyl ester; Lumiprobe, Moscow, Russia), was dissolved in DMSO as 1.0 mM stock solution. The marker of reactive oxygen species, H2DCFDA (Lumiprobe, Moscow, Russia), was dissolved in DMSO as 100.0 μM stock solution. After incubation, the cells were incubated with FBS-free culture medium containing the dye mixture of Hoechst 33342 (final concentration 1.0 μM) and LumiTracker Mito TMRE (final concentration 1.0 μM), or H2DCFDA dye taken alone (final concentration 1.0 μM), for 30 min at 37 °C in darkness. Fluorescence, at 420 nm (Hoechst 33342), at 510 nm (TMRE), and at 575 nm (H2DCFDA), of the test cultures (including controls) was analyzed immediately using a fluorescence microscope CKX 53 (Olympus, Tokyo, Japan). The TMRE fluorescence intensity was quantified using Fiji (ImageJ).

[5] = system: RD TE32; assay: MTT cell viability assay, RD TE32; assay type: cell-based, human; details: for IC50: Homo sapiens
Source text: Blokhin National Medical Research Center of Oncology (the Ministry of Health of the Russian Federation, Moscow).

[6] = target: T1, P-gp (Homo sapiens, UniProt P08183); assay: Rhodamine 123 efflux test (P-gp functional activity) in HBL-100/Dox cells; assay type: cell-based; details: Rh123 efflux, 60 min
T1 construct: endogenous in cells
T1 sequence (P08183 whole entry): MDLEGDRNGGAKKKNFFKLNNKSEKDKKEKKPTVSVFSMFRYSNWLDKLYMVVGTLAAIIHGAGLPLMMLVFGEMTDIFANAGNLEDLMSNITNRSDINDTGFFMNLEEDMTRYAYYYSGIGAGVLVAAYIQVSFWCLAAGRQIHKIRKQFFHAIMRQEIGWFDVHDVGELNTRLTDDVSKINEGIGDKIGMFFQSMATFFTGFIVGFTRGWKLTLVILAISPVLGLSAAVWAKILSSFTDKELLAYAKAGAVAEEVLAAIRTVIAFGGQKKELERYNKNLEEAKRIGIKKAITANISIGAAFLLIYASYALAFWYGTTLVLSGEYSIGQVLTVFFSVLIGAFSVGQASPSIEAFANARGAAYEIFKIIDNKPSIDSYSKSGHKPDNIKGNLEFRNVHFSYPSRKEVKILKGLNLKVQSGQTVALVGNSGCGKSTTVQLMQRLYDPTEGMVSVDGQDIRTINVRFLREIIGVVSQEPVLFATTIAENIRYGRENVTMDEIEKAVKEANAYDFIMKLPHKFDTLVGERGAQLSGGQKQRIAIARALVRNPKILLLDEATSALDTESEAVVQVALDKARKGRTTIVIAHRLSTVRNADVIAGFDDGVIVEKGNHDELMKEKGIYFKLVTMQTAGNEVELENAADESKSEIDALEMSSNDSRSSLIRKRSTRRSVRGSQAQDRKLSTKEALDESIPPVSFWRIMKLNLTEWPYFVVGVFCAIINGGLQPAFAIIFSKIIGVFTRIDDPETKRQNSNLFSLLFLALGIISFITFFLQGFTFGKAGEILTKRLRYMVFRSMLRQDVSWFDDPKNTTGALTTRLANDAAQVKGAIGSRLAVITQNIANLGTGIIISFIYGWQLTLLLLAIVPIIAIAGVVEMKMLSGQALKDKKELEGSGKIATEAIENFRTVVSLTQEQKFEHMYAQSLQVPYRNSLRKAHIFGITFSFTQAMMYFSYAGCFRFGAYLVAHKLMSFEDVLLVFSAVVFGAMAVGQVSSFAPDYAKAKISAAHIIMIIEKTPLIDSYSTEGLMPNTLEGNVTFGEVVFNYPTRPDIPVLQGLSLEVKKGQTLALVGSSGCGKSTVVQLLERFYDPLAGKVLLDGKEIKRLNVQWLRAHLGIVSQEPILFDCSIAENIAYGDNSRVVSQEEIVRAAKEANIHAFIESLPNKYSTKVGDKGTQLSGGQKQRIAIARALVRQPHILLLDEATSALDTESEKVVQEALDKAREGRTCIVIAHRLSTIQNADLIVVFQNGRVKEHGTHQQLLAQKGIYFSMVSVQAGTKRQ
Procedure: The functional activity of P-gp was evaluated using the previously described method. […] After incubation, the cells were washed twice and divided into several fractions (2.5 × 10^5 cells per point). One fraction was incubated in a pure medium, and the other one was incubated with MK (2.0 μM) added. […] Cell fluorescence was evaluated on CytoFlex S flow cytometer (Beckman Coulter, Brea, CA, USA). The results were analyzed using FlowJo software (ver. X 10.0.7r2, FlowJo Software, San Jose, CA, USA) and were represented as geometric mean fluorescence intensity (gMFI) and MAF coefficient, which were calculated using the following formula: MAF = (Mean (inh.) − Mean (free))/Mean (inh.), where MAF is the MDR activity functional, mean (free) is the mean value of cell fluorescence without inhibitor, and mean (inh.) is the mean value for cell fluorescence with inhibitor.

[7] = system: Active Caspase-3 in HBL-100 cells; assay: Flow cytometric analysis of active caspase-3, HBL-100; assay type: cell-based, human; details: 24 h
Procedure: The cells were detached with accutase (HiMedia Laboratories, Maharashtra, India) and then fixed with 70% ice cold ethanol followed by overnight incubation at 4 °C. The cells were washed twice with PBS, permeabilized using 0.1% Triton X-100 in PBS solution, and subsequently stained with 5 μL of the BD Horizon™ BV605 Rabbit Anti-Active Caspase-3 antibody (BD Biosciences, Franklin Lakes, NJ, USA). The cells were then washed, resuspended in PBS, and analyzed using a CytoFlex S flow cytometer (Beckman Coulter, Brea, CA, USA). Cell fluorescence was evaluated on a CytoFlex S flow cytometer (Beckman Coulter, Brea, CA, USA). The results were analyzed using FlowJo software (ver. X 10.0.7r2, FlowJo Software, San Jose, CA, USA) and represented as geometric mean fluorescence intensity (gMFI).

SMILES: COC(=O)[C@]12CC[C@@H](C(C)C)[C@@H]1[C@H]1CC[C@@H]3[C@@](C)(CCC#N)[C@H](C(=O)C(Br)Br)CC[C@@]3(C)[C@]1(C)CC2 [compound 31, 2-Cyano-24,24-dibromo-4-oxo-3,4-seco-3,23-dinorlupan-28-oic acid methyl ester]
- Dead cells ([1]; dose 2xIC50): 5.59±0.46%
- Late apoptotic cells ([1]; dose 2xIC50): 10.37 ± 1.01%
- Viable cells ([1]; dose 2xIC50): 76.73 ± 1.18%
- Early apoptotic cells ([1]; dose 2xIC50, listed as MK): 7.29 ± 0.28% and 7.29±0.29%
- Dead cells ([1]; dose IC50): 2.69±0.13%
- Late apoptotic cells ([1]; dose IC50): 3.59 ± 0.82%
- Early apoptotic cells ([1]; dose IC50, listed as MK): 4.43±0.49%
- Viable cells ([1]; dose IC50, listed as MK): 89.57 ± 0.93% and 89.58±0.94%
- activation of caspase-8 [2]: not observed
- activation of caspase-9 [2]: sequential activation of initiator caspase-9
- cytochrome c release [2]: provoked the release of cytochrome c from mitochondria to cytosol
- Dead cells ([3]; dose 2xIC50): 4.59±0.45%
- Viable cells ([3]; dose 2xIC50): 78.69 ± 1.29%
- Early apoptotic cells ([3]; dose 2xIC50, listed as MK): 5.50±0.44%
- Late apoptotic cells ([3]; dose 2xIC50, listed as MK): 10.94 ± 0.81% and 10.94±0.82%
- Dead cells ([3]; dose IC50): 2.52±0.08%
- Viable cells ([3]; dose IC50): 87.82 ± 0.44%
- Early apoptotic cells ([3]; dose IC50, listed as MK): 5.04 ± 0.51% and 5.04±0.52%
- Late apoptotic cells ([3]; dose IC50, listed as MK): 4.74 ± 0.44% and 4.74±0.04%
- mitochondrial membrane potential (MMP), TMRE fluorescence intensity ([4]; 16 h, vs untreated control): significant (p < 0.05) reduction in MMP
- number of cells with nuclear morphology changes ([4]; Hoechst 33342, 16 h, IC50 values (MK 1.0 µM)): 21.2%
- IC50 ([5]; RD TE32, MTT, 72 h of treatment, read-out: IC50 Values (Mean ± SD)): 700 ± 100 nM
- IC50 ([5]; Table S1, RD TE32, read-out: IC50 (mean ± SD)): 660 ± 40 nM
- Selectivity index (SI) ([5]; ratio of IC50 values healthy (HEK293) / RD TE32): 16.43
- P-gp inhibitory activity [6]: extremely low P-gp inhibitory activity
- MAF (MDR activity functional) ([6]; MK 2 μM, verapamil 30 μM, listed as MK): 0.22±0.1 and 0.22
- gMIF, Active Caspase-3 ([7]; dose 2×IC50): 11048±278
- gMIF, Active Caspase-3 ([7]; dose IC50): 6755±301
